Assay results published in US20100248224A1, “DNA FRAGMENTATION ASSAY” (priority 2006, published 2010).

How the values were obtained:
Type in all cases: cell-based, human
HL-60 cells [1] = test: DMSO tolerance in HL-60 cells, PicoGreen fluorescent assay; details: 20 hr incubation, 0.3 million cells/mL, FIG. 11
Protocol: HL-60 cells in mid-log phase (0.3 million cells/mL) were treated with different doses of DMSO for 20 hours. An equal volume of the lysis buffer (20 mM Tris-HCl (pH 8.0), 20 mM EDTA, 0.2% Tween-20 and 5 ug/ml. RNase) was added into the total cell culture. The cell lysate was centrifuged at 2000×g for 20 min. The top portion of the supernatant was withdrawn and DNA content was quantitated using the PicoGreen fluorescent assay.

HL-60 cells [2] = test: ELISA detection of DNA fragmentation in HL-60 cell lysates (Cell Death Detection ELISA kit); details: HL-60 cells 0.3 million cells/ml, treated 20 hours, FIG. 5, read-out: EC50 value, DNA fragmentation determined by ELISA
HL-60 cells [3] = test: PicoGreen detection of DNA fragmentation in HL-60 cell lysates; details: for EC50: HL-60 cells 0.3 million cells/ml, treated 20 hours, FIG. 3, read-out: EC50 value, DNA fragmentation detected with PicoGreen
Protocol: An equal volume of the lysis buffer (20 mM Tris-HCl (pH 8.0), 20 mM EDTA, 0.2% Tween-20 and 5 ug/mL RNase) was added into the total cell culture. […] The dose response curve of camptothecin using PicoGreen detection (FIG. 3) was compared to propidium iodide detection (FIG. 4).

HL-60 cells [4] = test: Inhibition of camptothecin-induced DNA fragmentation in HL-60 cells, PicoGreen detection; details: 20 hours, FIG. 6
Text: Zinc has been known to inhibit apoptosis induced by both chemical and death-receptor agonists. […] DNA fragments released from cells were quantified with PicoGreen reagent as described above. For samples with camptothecin, without zinc chloride or at low concentrations, fluorescence signal was more than 3 fold of that from samples with DMSO treatment.

C[S+](C)[O-] [DMSO, dimethyl sulfoxide]
DMSO concentration tolerated by HL-60 cells (HL-60 cells [1]): up to 1%

CC[C@@]1(O)C(=O)OCc2c1cc1n(c2=O)Cc2cc3ccccc3nc2-1 [camptothecin, Camptothecin]
EC50 (HL-60 cells [2]; Homo sapiens): 1110 nM | PicoGreen fluorescence intensity (HL-60 cells [3]; 3.2 uM for 5.5 hours vs 0.1% DMSO, 0.4 million cells/mL, FIG. 1): increased | DNA fragmentation, time course (HL-60 cells [3]; 3.2 uM, at 4 hours of treatment, FIG. 8): significant increase in DNA fragmentation | EC50 (HL-60 cells [3]; Homo sapiens): 1480 nM | fluorescence signal relative to samples with DMSO treatment (HL-60 cells [4]; 3.2 μM camptothecin, without zinc chloride or at low concentrations): more than 3 fold

[Cl-].[Cl-].[Zn+2] [zinc chloride]
magnitude of camptothecin-induced DNA fragmentation (level of fluorescent signal) (HL-60 cells [4]; zinc chloride 100 uM or higher, with 3.2 μM camptothecin): decreased to the same level as samples with DMSO treatment only

Neomycin
EC50 (HL-60 cells [2]): > 100000 nM | EC50 (HL-60 cells [3]): > 100000 nM
